Data set [1] deals with T1, ATP-dependent translocase ABCB1 (Mus musculus, UniProt P21447). As to the kind of experiment: TP_TRANSPORTER: increase in brain concentration in mdr1a(-/-) mouse. The format is functional, organism-based. The note with it: in vivo.
Data set [2] has as its target T1, ATP-dependent translocase ABCB1. Kind of data set: TP_TRANSPORTER: increase in blood concentration in mdr1a(-/-) mouse. The format is functional, organism-based. The note with it: in vivo.

T1 sequence (P21447 whole entry): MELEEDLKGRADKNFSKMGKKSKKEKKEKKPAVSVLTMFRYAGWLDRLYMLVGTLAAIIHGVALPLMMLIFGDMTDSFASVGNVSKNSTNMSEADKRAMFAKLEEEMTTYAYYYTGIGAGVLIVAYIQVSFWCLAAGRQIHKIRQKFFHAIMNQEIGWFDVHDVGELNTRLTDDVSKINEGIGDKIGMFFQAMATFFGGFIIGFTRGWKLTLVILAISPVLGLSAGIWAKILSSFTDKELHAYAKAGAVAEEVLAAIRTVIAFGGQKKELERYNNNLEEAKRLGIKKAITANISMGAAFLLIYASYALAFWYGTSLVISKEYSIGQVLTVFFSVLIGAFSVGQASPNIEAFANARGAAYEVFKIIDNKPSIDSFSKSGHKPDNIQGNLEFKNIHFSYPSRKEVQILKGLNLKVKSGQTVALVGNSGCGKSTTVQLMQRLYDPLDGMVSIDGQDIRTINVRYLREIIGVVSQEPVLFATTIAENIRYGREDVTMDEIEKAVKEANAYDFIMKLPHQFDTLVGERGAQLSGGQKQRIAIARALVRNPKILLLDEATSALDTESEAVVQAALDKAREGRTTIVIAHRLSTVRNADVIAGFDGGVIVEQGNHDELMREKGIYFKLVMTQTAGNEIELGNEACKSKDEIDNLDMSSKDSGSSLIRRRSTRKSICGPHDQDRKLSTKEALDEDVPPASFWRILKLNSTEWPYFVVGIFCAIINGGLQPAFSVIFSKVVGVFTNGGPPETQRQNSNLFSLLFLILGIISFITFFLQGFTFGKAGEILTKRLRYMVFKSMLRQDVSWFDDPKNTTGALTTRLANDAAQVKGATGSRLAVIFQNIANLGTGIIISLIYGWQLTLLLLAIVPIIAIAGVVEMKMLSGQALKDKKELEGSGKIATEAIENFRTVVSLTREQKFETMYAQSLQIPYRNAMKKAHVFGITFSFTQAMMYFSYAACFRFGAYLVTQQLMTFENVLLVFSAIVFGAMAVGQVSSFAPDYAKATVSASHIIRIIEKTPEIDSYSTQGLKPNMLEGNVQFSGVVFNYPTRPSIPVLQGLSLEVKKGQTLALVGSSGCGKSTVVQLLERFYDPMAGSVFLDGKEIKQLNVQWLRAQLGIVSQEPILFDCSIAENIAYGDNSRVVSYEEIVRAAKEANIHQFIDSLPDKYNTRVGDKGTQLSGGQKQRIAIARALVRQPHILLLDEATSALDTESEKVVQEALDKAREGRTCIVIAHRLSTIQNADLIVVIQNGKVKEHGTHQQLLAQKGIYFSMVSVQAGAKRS

For the compound `C=CC[C@@H]1/C=C(\C)C[C@H](C)C[C@H](OC)[C@H]2O[C@@](O)(C(=O)C(=O)N3CCCC[C@H]3C(=O)O[C@H](/C(C)=C/[C@@H]3CC[C@@H](O)[C@H](OC)C3)[C@H](C)[C@@H](O)CC1=O)[C@H](C)C[C@@H]2OC` [TACROLIMUS ANHYDROUS], the Activity entry in data set [1] and in data set [2] was “substrate [+]” in each case.

Source of the values: ChEMBL document CHEMBL2074004, “P-glycoprotein-dependent disposition kinetics of tacrolimus: studies in mdr1a knockout mice” (Pharm Res, 1999).
